For two molecules, EC50 results are on record in publication PMC7789826 (Journal of Molecular Structure, 2021).

The term EC50 denotes the concentration that produces a half-maximal response.

The target in the experiment is voltage-gated potassium channel Kv1.3 (Homo sapiens, UniProt P22001). Description: whole-cell patch clamp, voltage ramp, endogenous Kv1.[…] current in Jurkat T cells. Format: cell-based.
Sequence of voltage-gated potassium channel Kv1.3 (P22001 whole entry): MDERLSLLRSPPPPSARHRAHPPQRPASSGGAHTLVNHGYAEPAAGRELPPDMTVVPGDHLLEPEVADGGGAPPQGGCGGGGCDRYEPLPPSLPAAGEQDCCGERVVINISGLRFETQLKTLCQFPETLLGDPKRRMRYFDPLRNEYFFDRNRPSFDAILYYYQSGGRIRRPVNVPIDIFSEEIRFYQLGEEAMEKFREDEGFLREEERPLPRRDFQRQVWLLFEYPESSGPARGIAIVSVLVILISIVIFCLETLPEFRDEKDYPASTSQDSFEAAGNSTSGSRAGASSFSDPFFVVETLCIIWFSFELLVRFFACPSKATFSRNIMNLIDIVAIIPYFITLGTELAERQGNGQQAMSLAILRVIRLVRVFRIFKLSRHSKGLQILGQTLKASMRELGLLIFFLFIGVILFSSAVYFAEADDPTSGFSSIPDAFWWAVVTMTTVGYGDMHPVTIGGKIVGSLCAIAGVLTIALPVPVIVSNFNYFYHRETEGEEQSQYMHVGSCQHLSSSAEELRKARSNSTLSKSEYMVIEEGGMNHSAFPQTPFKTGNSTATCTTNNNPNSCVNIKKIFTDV

The molecule `CC[C@H](C)C(=O)O[C@H]1CCC=C2C=C[C@H](C)[C@H](CC[C@@H]3C[C@@H](O)CC(=O)O3)[C@H]21` [mevastatin] displayed a concentration giving a half-maximal response (EC50) of 6.04 µM.

Molecule `CCC(C)(C)C(=O)O[C@H]1C[C@@H](C)C=C2C=C[C@H](C)[C@H](CC[C@@H]3C[C@@H](O)CC(=O)O3)[C@H]21` [simvastatin] gave an EC50 of 4.85 µM.
